Values belong to the molecule of their own block, whether it stands above or below them.
Tests used:
[1] = Coadministration of ripretinib with a proton-pump inhibitor (pantoprazole): exposure; type: in vivo; conditions: for differences in plasma exposure: ripretinib coadministered with pantoprazole
Procedure: The effect of a proton-pump inhibitor on the exposure of ripretinib was evaluated.

[2] = Food effect (high-fat meal) on ripretinib and Compound A exposure; type: in vivo; conditions: for AUC0-24h higher by / Cmax higher by: ripretinib 150 mg dose with a high-fat meal
Procedure: The effect of a high-fat breakfast on ripretinib and Compound A exposure was evaluated. A high fat meal consisted of approximately 150, 250, and 500-600 calories from protein, carbohydrate, and fat, respectively. […] Therefore, ripretinib may be taken with or without food at approximately same time each day.

[3] = Coadministration of ripretinib with a strong CYP3A inhibitor (itraconazole): exposure; type: in vivo; conditions: coadministration of ripretinib with itraconazole (strong CYP3A inhibitor and P-gp inhibitor)
[4] = Solubility; type: physicochemical
[5] = system: patients with melanoma; assay: Phase 1 study of treating melanoma with ripretinib (efficacy, RECIST 1.1); type: in vivo, human
Procedure: This is a Phase 1 study to evaluate the efficacy of ripretinib in treating patients with melanoma. An efficacy cohort of 26 patients were enrolled. Each patient was administered 150 mg of ripretinib daily in repeated 28-day cycles until disease progression, unacceptable toxicity, or consent withdrawal. Patients who had disease progression at ripretinib 150 mg QD were allowed to escalate to 150 mg twice daily (BID) after the completion of Cycle 2. The efficacy endpoints includes Objective Response Rate (ORR), Disease Control Rate (DCR), Duration of Response (DOR) Time to Best Response (TBR), and progression-free survival (PFS) as determined by radiologic review using Response Evaluation Criteria in Solid Tumors (RECIST 1.1).
Prior tyrosine kinase inhibitor (TKI) treatment analysis. […] 17 of the 25 members of the cohort received no prior TKI and, among these members, the mPFS was determined to be 10.2 months and the ORR was determined to be 29.4% (5 out of 17 members). 8 of the 25 members received TKI treatment prior to receiving ripretinib and, among these members, the mPFS was determined to be 2.9 months and the ORR was determined to be 11% (1 out of […] members).
Mutational Analysis. An analysis of the efficacy of ripretinib based on baseline mutations of melanoma among the efficacy cohort was performed. […] L576P (Exon 11), K642E (Exon 13) and N822K/Y (Exon 17) were determined to be the most prevalent baseline mutations in this cohort.

[6] = investigator assessment, Total (N = 26)
[7] = investigator assessment, Total, n 6

differences in plasma exposure [1]: No clinically significant differences | AUC0-24h higher by [2]: 47% | Cmax higher by [2]: 66% | increase in AUC0-inf [3]: 99% | increase in Cmax [3]: no change
Compound: CCn1c(=O)c(-c2cc(NC(=O)Nc3ccccc3)c(F)cc2Br)cc2cnc(N)cc21 [Compound A]

effect on ripretinib exposure ([1]; 40 mg QD pantoprazole with 150 mg QD ripretinib): did not affect ripretinib exposure | differences in plasma exposure [1]: No clinically significant differences | AUC0-24h higher by [2]: 30% | Cmax higher by [2]: 22% | solubility [4]: pH-dependent solubility | increase in AUC0-inf [3]: 99% | increase in Cmax [3]: 36%
Compound: CCn1c(=O)c(-c2cc(NC(=O)Nc3ccccc3)c(F)cc2Br)cc2cnc(NC)cc21 [ripretinib]
food effect, clinical significance ([2]; based on exposure-response analysis): not considered to be clinically significant | median PFS ([5]; 150 mg daily, 28-day cycles, whole efficacy cohort): 7.3 months | confirmed ORR ([5]; Exon 11 patients): 44% | median PFS ([5]; Exon 11 patients): 10.2 months | median duration of response ([5]; Exon 11 patients): 10.5 months | median time to confirmed response ([5]; Exon 11 patients): 1.9 months | confirmed ORR ([5]; Exon 17 patients): 18% | median PFS ([5]; Exon 17 patients): 13.6 months | median duration of response ([5]; Exon 17 patients): 8.1 months | median time to confirmed response ([5]; Exon 17 patients): 1.7 months | Confirmed Partial Response, % ([5]; KIT Exon 11 (N = 9)): (44.4) % | No Response Assessment, % ([5]; KIT Exon 11 (N = 9)): (11.1) % | Progressive Disease, % ([5]; KIT Exon 11 (N = 9)): (11.1) % | Stable Disease (≥6 wks), % ([5]; KIT Exon 11 (N = 9)): (33.3) % | Progressive Disease, % ([5]; KIT Exon 13 (N = 4)): (50.0) % | Stable Disease (≥6 wks), % ([5]; KIT Exon 13 (N = 4)): (50.0) % | Confirmed Complete Response, % ([5]; KIT Exon 17 (N = 11)): (9.1) % | Confirmed Partial Response, % ([5]; KIT Exon 17 (N = 11)): (9.1) % | Progressive Disease, % ([5]; KIT Exon 17 (N = 11)): (36) % | Stable Disease (≥6 wks), % ([5]; KIT Exon 17 (N = 11)): (45.5) % | Progressive Disease, % ([5]; KIT Exon 18 (N = 1)): 100.0% | Stable Disease (≥6 wks), % ([5]; KIT Exon Amplification (N = 1)): 100.0% | Objective Response Rate, % ([5]; investigator assessment, Total): (23.1) % | Time to Response, Median ([5]; investigator assessment, Total): 1.9 Months | Best Overall Response: Confirmed Complete Response, % [5, 6]: (3.8) % | Best Overall Response: Confirmed Partial Response, % [5, 6]: (19.2) % | Best Overall Response: No Response Assessment, % [5, 6]: (4) % | Best Overall Response: Progressive Disease, % [5, 6]: (31) % | Best Overall Response: Stable Disease (≥6 weeks duration), % [5, 6]: (42.3) % | Duration of Response, Max [5, 7]: 28.6 Months | Duration of Response, Mean [5, 7]: 10.5 Months | Duration of Response, Median [5, 7]: 9.1 Months | Duration of Response, Min [5, 7]: 4.1 Months | mPFS ([5]; no prior TKI treatment): 10.2 months | ORR ([5]; no prior TKI treatment (5 out of 17)): 29.4% | mPFS ([5]; prior TKI treatment): 2.9 months | ORR ([5]; prior TKI treatment (1 out of 9)): 11% | confirmed ORR ([5]; radiologic review using RECIST version 1.1, whole cohort (6 out of 26)): 23.1% | confirmed and unconfirmed ORR ([5]; whole cohort): 30.8% | median DOR (mDOR) ([5]; whole cohort): 9.1 months

From US20240122906A1, “METHODS OF TREATING MELANOMA WITH RIPRETINIB” (Deciphera Pharmaceuticals, LLC, priority 2021, published 2024)
